Source: ChEMBL document CHEMBL3259698, “Reductions in log P improved protein binding and clearance predictions enabling the prospective design of cannabinoid receptor (CB1) antagonists with desired pharmacokinetic properties” (J Med Chem, 2013)
In brackets after ≈: the same amount, converted by molar mass.

What was measured:
[1] = Terminal half life in Sprague-Dawley rat at 3 mg/kg, iv; assay type: ADME, organism-based; set-up: dose 3 mg/kg, route intravenous; settings: in vivo, read-out: beta t1/2 (converted)
[2] = molecular target: Cytochrome P450 2C9 (Homo sapiens, UniProt P11712); experiment: Inhibition of human recombinant CYP2C9; assay type: ADME
[3] = Elimination half life in iv dosed dog; assay type: ADME, organism-based, Canis lupus familiaris; settings: in vivo, read-out: beta t1/2 (converted)
[4] = Aqueous solubility of the compound; assay type: physicochemical; settings: buffer
[5] = Elimination half life in iv dosed cynomolgus monkey; assay type: ADME, organism-based, Macaca fascicularis; settings: in vivo, read-out: beta t1/2 (converted)
[6] = Lipophilicity, log P of the compound by HPLC analysis; assay type: physicochemical
[7] = molecular target: Cytochrome P450 2C19 (Homo sapiens, UniProt P33261); experiment: Inhibition of human recombinant CYP2C19; assay type: ADME
[8] = molecular target: Cytochrome P450 3A4 (Homo sapiens, UniProt P08684); experiment: Inhibition of human recombinant CYP3A4
[9] = molecular target: Cannabinoid receptor 1 (Homo sapiens, UniProt P21554); experiment: Binding affinity to human CB1 receptor expressed in CHO cells by radioligand displacement based scintillation counting analysis; assay type: cell-based
[10] = test system: Liver microsome; experiment: Clearance in rat liver microsomes at 1 to 3 uM after 20 mins by LC/MS/MS analysis
[11] = Fraction unbound in rat plasma at 10 uM by equilibrium dialysis method; assay type: ADME, cell-free
[12] = Oral bioavailability in Sprague-Dawley rat; assay type: ADME, organism-based; settings: in vivo
[13] = test system: Rattus norvegicus; experiment: Antiobesity activity in rat assessed as reduction in body weight at 3 mg/kg after 4 days; assay type: functional; set-up: scale not given: the % may be the effect or the level left
[14] = Drug excretion in bile duct-cannulated rat urine assessed as M + 2O-2H and M + O + glucuronide level at 5 mg/kg, po after 48 hrs; assay type: ADME, organism-based; set-up: dose 5 mg/kg, route oral; settings: in vivo
[15] = Fraction unbound in human plasma at 10 uM by equilibrium dialysis method; assay type: ADME, cell-free
[16] = Drug excretion in bile duct-cannulated rat at 5 mg/kg, po; assay type: ADME, organism-based; set-up: dose 5 mg/kg, route oral; settings: read-out: Drug excretion
[17] = test system: Rattus norvegicus; experiment: Antiobesity activity in diet-induced obese rat as reduction in body weight at 10 mg/kg, po after 28 days; assay type: functional; set-up: scale not given: the % may be the effect or the level left
[18] = test system: Rattus norvegicus; experiment: Antiobesity activity in diet-induced obese rat as reduction in body weight at 1 mg/kg, po after 28 days; assay type: functional; set-up: scale not given: the % may be the effect or the level left
[19] = Oral bioavailability in dog; assay type: ADME, organism-based, Canis lupus familiaris; settings: in vivo
[20] = Drug excretion in bile duct-cannulated rat bile at 5 mg/kg, po after 48 hrs; assay type: ADME, organism-based; set-up: dose 5 mg/kg, route oral; settings: read-out: Drug excretion
[21] = test system: Rattus norvegicus; experiment: Drug excretion in bile duct-cannulated rat assessed as M + O + glucuronide level at 5 mg/kg, po; assay type: ADME, organism-based; set-up: dose 5 mg/kg, route oral; settings: in vivo
[22] = Drug excretion in bile duct-cannulated rat bile assessed as M + 2O-2H and M + O + glucuronide level at 5 mg/kg, po after 48 hrs; assay type: ADME, organism-based; set-up: dose 5 mg/kg, route oral; settings: in vivo
[23] = test system: Rattus norvegicus; experiment: Drug excretion in bile duct-cannulated rat assessed as M + 2O-2H level at 5 mg/kg, po; assay type: ADME, organism-based; set-up: dose 5 mg/kg, route oral; settings: in vivo
[24] = test system: Rattus norvegicus; experiment: Antiobesity activity in rat assessed as reduction in body weight at 10 mg/kg after 4 days; assay type: functional; set-up: scale not given: the % may be the effect or the level left
[25] = Oral bioavailability in cynomolgus monkey; assay type: ADME, organism-based, Macaca fascicularis; settings: in vivo
[26] = Metabolic stability in rat hepatocytes assessed as compound remaining at 0.5 to 3 uM after 2 hrs by LC-MS/MS analysis; assay type: ADME, cell-based, Hepatocyte; settings: read-out: Stability
[27] = test system: Rattus norvegicus; experiment: Antiobesity activity in diet-induced obese rat as reduction in body weight at 3 mg/kg, po after 28 days; assay type: functional; set-up: scale not given: the % may be the effect or the level left
[28] = Elimination half life in human; assay type: ADME, organism-based; settings: in vivo, read-out: beta t1/2 (converted)
[29] = test system: Rattus norvegicus; experiment: Antiobesity activity in rat assessed as reduction in body weight at 10 mg/kg, qd after 4 days; assay type: functional; set-up: scale not given: the % may be the effect or the level left

Chain of Cannabinoid receptor 1 (P21554 whole entry): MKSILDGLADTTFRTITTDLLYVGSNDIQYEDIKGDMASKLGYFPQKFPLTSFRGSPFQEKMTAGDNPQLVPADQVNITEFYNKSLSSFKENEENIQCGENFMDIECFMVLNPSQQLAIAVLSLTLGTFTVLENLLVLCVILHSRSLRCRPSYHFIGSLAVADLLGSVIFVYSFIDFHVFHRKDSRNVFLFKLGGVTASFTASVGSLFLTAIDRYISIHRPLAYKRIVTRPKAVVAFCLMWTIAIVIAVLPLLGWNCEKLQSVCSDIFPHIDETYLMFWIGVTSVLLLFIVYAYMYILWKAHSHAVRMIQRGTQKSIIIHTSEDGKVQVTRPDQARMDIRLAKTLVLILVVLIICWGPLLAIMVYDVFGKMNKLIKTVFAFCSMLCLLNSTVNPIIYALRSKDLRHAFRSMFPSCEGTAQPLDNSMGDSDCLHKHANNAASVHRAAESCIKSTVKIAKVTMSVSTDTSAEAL
Chain of Cytochrome P450 3A4 (P08684 whole entry): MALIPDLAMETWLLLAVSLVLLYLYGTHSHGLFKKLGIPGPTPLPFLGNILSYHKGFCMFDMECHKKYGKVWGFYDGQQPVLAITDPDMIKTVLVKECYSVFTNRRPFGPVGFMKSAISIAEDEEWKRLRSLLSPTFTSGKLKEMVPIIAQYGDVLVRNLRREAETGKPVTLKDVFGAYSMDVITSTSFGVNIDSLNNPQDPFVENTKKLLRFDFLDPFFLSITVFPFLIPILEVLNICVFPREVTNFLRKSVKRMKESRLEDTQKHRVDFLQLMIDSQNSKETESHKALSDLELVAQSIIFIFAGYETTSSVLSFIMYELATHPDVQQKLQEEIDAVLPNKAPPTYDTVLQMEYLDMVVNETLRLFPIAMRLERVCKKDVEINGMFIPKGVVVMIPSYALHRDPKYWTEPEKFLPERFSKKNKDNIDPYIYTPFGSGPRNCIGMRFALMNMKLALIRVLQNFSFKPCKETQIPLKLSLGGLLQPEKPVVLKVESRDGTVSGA
Chain of Cytochrome P450 2C19 (P33261 whole entry): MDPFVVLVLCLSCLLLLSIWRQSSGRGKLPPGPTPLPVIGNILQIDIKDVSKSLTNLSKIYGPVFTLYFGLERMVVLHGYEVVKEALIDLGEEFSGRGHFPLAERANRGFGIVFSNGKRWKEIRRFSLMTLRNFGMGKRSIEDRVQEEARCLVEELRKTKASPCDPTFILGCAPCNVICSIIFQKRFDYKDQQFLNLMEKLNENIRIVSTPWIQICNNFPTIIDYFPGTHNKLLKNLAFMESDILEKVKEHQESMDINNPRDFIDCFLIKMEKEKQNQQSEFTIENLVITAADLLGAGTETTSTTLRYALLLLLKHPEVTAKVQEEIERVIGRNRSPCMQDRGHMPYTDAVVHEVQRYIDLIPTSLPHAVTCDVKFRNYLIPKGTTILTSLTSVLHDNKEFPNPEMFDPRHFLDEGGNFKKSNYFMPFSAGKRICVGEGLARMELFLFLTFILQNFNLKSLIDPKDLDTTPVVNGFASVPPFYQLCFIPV
Chain of Cytochrome P450 2C9 (P11712 whole entry): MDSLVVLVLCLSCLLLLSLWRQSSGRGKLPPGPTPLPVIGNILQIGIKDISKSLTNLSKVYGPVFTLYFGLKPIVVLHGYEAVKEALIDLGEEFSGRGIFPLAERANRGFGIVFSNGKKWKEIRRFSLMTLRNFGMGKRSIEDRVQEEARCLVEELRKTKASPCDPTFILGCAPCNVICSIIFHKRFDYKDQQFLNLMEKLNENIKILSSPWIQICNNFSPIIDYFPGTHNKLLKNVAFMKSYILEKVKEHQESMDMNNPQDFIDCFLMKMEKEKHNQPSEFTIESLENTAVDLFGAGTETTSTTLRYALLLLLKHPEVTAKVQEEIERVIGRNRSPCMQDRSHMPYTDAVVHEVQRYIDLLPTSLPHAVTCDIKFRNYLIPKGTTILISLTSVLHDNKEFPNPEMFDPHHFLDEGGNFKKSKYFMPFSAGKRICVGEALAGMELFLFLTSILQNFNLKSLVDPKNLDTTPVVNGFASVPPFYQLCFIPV

With `CCn1nc2c(-c3ccc(Cl)cc3)c(-c3ccc(C#N)cc3)c(=O)n(Cc3ccc(C(F)(F)F)nc3C)n2c1=O` the half-life [1] was 7 h, the IC50 [2] was greater than 40000 nM and the half-life [3] was 70 h. For the same compound, the solubility [4] was 3 µg/mL (≈ 5.31 µM), the half-life [5] was 40 h and the logP [6] was 4.6. It also gave an IC50 [7] greater than 40000 nM, an IC50 [8] greater than 40000 nM and a Ki [9] of 1.4 nM.
`CCn1nc2c(-c3ccc(Cl)cc3)c(-c3ccc(C#N)c(C)c3)c(=O)n(Cc3ccc(C(F)(F)F)nc3C)n2c1=O` gave a CLH [10] of 0 nmol/min/mg, a logP [6] of 5 and a Ki [9] of 3 nM.
In the case of `CCc1nc(C(F)(F)F)ccc1Cn1c(=O)c(-c2ccc(C#N)cc2)c(-c2ccc(Cl)cc2)c2nn(CC)c(=O)n21`, the CLH [10] is reported as 0.152 nmol/min/mg, the logP [6] is reported as 5 and the Ki [9] is reported as 1.6 nM.
`Cc1nc(C(F)(F)F)ccc1Cn1c(=O)c(-c2ccc(C#N)cc2)c(-c2ccc(Cl)cc2)c2nn(C(C)C)c(=O)n21` showed a CLH [10] of 0.014 nmol/min/mg, a logP [6] of 5.2 and a Ki [9] of 1.9 nM.
`CCn1nc2c(-c3ccc(Cl)cc3)c(-c3ccc(C#N)cc3)c(=O)n(Cc3ccc(C)cc3)n2c1=O` gave a logP [6] of 5.2 and a Ki [9] of 12 nM.
In the case of `CCn1nc2c(-c3ccc(C)cc3)c(-c3ccc(C#N)cc3)c(=O)n(Cc3ccc(C(F)(F)F)nc3C)n2c1=O`, the CLH [10] is reported as 0.052 nmol/min/mg, the logP [6] is reported as 4.6 and the Ki [9] is reported as 2.9 nM.
Compound `CCn1nc2c(-c3ccc(Cl)cc3)c(-c3ccc(C#N)cc3)c(=O)n(Cc3ccc(C#N)cc3)n2c1=O` has a half-life [3] of 45 h, a half-life [5] of 8 h and a logP [6] of 4.2. For the same compound, the fraction unbound at 10 µM [11] was 0.01 and the Ki [9] was 5 nM.
With `CCn1nc2c(-c3ccc(Cl)cc3)c(-c3ccc(CO)nc3)c(=O)n(Cc3ccc(C(F)(F)F)nc3C)n2c1=O` the half-life [1] was 1.1 h, the half-life [3] was 7 h and the half-life [5] was 9 h. For the same compound, the logP [6] was 3.6, the fraction unbound at 10 µM [11] was 0.09 and the Ki [9] was 5 nM.
`CCn1nc2c(-c3ccc(Cl)cc3)c(-c3cnc(C)nc3)c(=O)n(Cc3ccc(C(F)(F)F)nc3C)n2c1=O` showed a bioavailability [12] of 73%, an Activity [13] of 2.8% and a Drug excretion [14] of 7 %ID. The fraction unbound at 10 µM [15] was 0.07, the dose excreted [16] was less than 1% and the half-life [1] was 5 h. It also gave an Activity [17] of 10.2%, an Activity [18] of 2.4% and an IC50 [2] greater than 40000 nM. For the same compound, the bioavailability [19] was 75%, the dose excreted at 48 h [20] was 0.8% and the Drug excretion [21] was 26 %ID. The Drug excretion [22] was 76 %ID, the half-life [3] was 42 h and the Drug excretion [23] was 36 %ID. The Activity [24] was 7.2%, the solubility [4] was 17 µg/mL (≈ 30.6 µM) and the half-life [5] was 12 h. The bioavailability [25] was 51%, the remaining at 2 h, 3 µM [26] was 5% and the logP [6] was 3.8. The IC50 [7] was greater than 40000 nM, the fraction unbound at 10 µM [11] was 0.13 and the IC50 [8] was greater than 40000 nM. The Ki [9] was 4.7 nM and the Activity [27] was 4.1%.
In the case of `CCn1nc2c(-c3ccc(Cl)cc3)c(-c3ccncc3F)c(=O)n(Cc3ccc(C(F)(F)F)nc3C)n2c1=O`, the IC50 [2] is reported as 14000 nM, the logP [6] is reported as 4.3 and the IC50 [7] is reported as 5000 nM. For the same compound, the IC50 [8] was 7000 nM and the Ki [9] was 3.2 nM.
In the case of `CCn1nc2c(-c3ccc(Cl)cc3)c(-c3cnn(C)c3)c(=O)n(Cc3ccc(C#N)cc3)n2c1=O`, the IC50 [2] is reported as greater than 40000 nM, the logP [6] is reported as 3.8 and the IC50 [7] is reported as greater than 40000 nM. The IC50 [8] was 3400 nM and the Ki [9] was 92 nM.
`CCn1nc2c(-c3ccc(Cl)cc3)c(-c3cnc(N(C)C)nc3)c(=O)n(Cc3ccc(C#N)cc3)n2c1=O` gave an IC50 [2] greater than 40000 nM, a logP [6] of 4.3 and an IC50 [7] greater than 40000 nM. It also gave an IC50 [8] greater than 40000 nM and a Ki [9] of 77 nM.
Work on `CCNC1(C(N)=O)CCN(c2ncnc3c2nc(-c2ccccc2Cl)n3-c2ccc(Cl)cc2)CC1` [OTENABANT] yielded a half-life [28] of 120 h.
For `Cc1c(C(=O)NN2CCCCC2)nn(-c2ccc(Cl)cc2Cl)c1-c1ccc(Cl)cc1` [RIMONABANT], the half-life [28] was 216 h, the Activity [17] was 6.2% and the Activity [29] was 5%.
For `C[C@H](NC(=O)C(C)(C)Oc1ccc(C(F)(F)F)cn1)[C@@H](Cc1ccc(Cl)cc1)c1cccc(C#N)c1` [TARANABANT], the half-life [28] was 72 h.
